Experimental data from patent US20250326794A1, “ANTI-CANCER LEUCINE-RICH PEPTIDES AND USES THEREOF” (KING'S COLLEGE LONDON, priority 2019, published 2025).
Where two headings read alike, the source gives them in different places.

Legend:
[1] = Tryptophan fluorescent binding assay, POPC vesicles; conditions: 50 μM peptide, PBS pH 7.4, lipid per peptide
Summary of the method: (§1)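 Binding followed by tryptophan emission (300-450 nm, 280 nm excitation, 3 scans averaged) after 60 min incubation of 50 μM peptide with 0-5000 μM extruded 100 nm POPC or 3:1 POPC/POPG vesicles in PBS pH 7.4. Value: lipid-to-peptide ratio at half-maximal binding.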

[2] = Tryptophan fluorescent binding assay, 3POPC/1POPG vesicles; conditions: 50 μM peptide, PBS pH 7.4, lipid per peptide
Summary of the method: as §1

[3] = ANTS/DPX liposome leakage assay, POPC vesicles; assay type: biochemical; conditions: 0.5 mM vesicles; for Peptide Concentration-induced 50% ANTS/DPX leakage at pH 4.8, POPC Vesicle: pH 4.8, lipid per peptide; for Peptide Concentration-induced 50% ANTS/DPX leakage at pH 7.4, POPC Vesicle: pH 7.4, lipid per peptide
Summary of the method: (§2)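 Peptide titrations (0–20 μM) were incubated 3 h with 0.5 mM ANTS/DPX-loaded 100 nm vesicles, either POPC alone or 3:1 POPC/POPG, at pH 7.4 or pH 4.8 in PBS. ANTS fluorescence (350/510 nm) normalized to Triton-lysed vesicles; 50%-leakage values given as lipid:peptide ratio.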

[4] = ANTS/DPX liposome leakage assay, 3POPC/1POPG vesicles; assay type: biochemical; conditions: for Peptide Concentration-induced 50% ANTS/DPX leakage at pH 4.8, 3POPC/1POPG Vesicle / Peptide Concentration-induced 50% ANTS/DPX leakage at pH 7.4, 3POPC/1POPG Vesicle: 0.5 mM vesicles; for Peptide Concentration-induced 50% ANTS/DPX leakage at pH 4.8, 3POPC/1POPG Vesicle: pH 4.8, lipid per peptide; for Peptide Concentration-induced 50% ANTS/DPX leakage at pH 7.4, 3POPC/1POPG Vesicle: pH 7.4, lipid per peptide; for liposome leakage activity from anionic vesicle at pH 4.8 (in words): anionic versus zwitterionic vesicle
Summary of the method: as §2

[5] = tested on: HMLER-shEcad cells; experiment: HMLER-shEcad viability with co-incubated necroptosis/apoptosis inhibitors; assay type: cell-based, human; conditions: 20 μM necrostatin-1 or 5 μM z-VAD-FMK (FIG. 9C, 9D)
[6] = tested on: HMLER-shEcad mammospheres; experiment: Tumoursphere formation and viability assay (TOX8); assay type: cell-based, human; conditions: for decrease in activity, two-dimensional versus mammospheres: HMLER-shEcad 2D IC50 versus mammosphere IC50
[7] = tested on: HEK293T (human embryonic kidney cell); experiment: cells; conditions: 72 h
[8] = tested on: HMLER (human breast cancer bulk cell); experiment: cells; conditions: 72 h
Summary of the method: (§3)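 MTT viability after 72 h exposure to 0–100 μM compound (final DMSO 0.5% or 0%), 5×10^3 cells/well; HMLER lines and MCF-10A in MEGM, U2OS in DMEM with 10% FBS. A550 normalized to matching vehicle controls; IC50 interpolated from dose–response curves.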

[9] = tested on: HMLER-shEcad (human breast cancer stem cell); experiment: cells
Summary of the method: as §3

[10] = tested on: MCF-10A (human breast epithelial cell); experiment: cells; conditions: 72 h
Summary of the method: as §3

[11] = tested on: U2OS (human bone osteosarcoma); conditions: 72 h
Summary of the method: as §3

| SMILES | Lipid Concentration-induced 50% Peptide Binding, POPC Vesicle [1] [L/P] | Lipid Concentration-induced 50% Peptide Binding, 3POPC/1POPG Vesicle [2] [L/P] | Peptide Concentration-induced 50% ANTS/DPX leakage at pH 4.8, POPC Vesicle [3] [L/P] | Peptide Concentration-induced 50% ANTS/DPX leakage at pH 7.4, POPC Vesicle [3] [L/P] | Peptide Concentration-induced 50% ANTS/DPX leakage at pH 4.8, 3POPC/1POPG Vesicle [4] [L/P] | Peptide Concentration-induced 50% ANTS/DPX leakage at pH 7.4, 3POPC/1POPG Vesicle [4] [L/P] | liposome leakage activity from anionic vesicle at pH 4.8 (in words) [4] | cell viability on co-incubation with necrostatin or z-VAD-FMK [5] | decrease in activity, two-dimensional versus mammospheres [6] | IC50 [7] [µM] | IC50 [8] [µM] | IC50 ([9]; 72 h) [µM] | IC50 [10] [µM] | IC50 [11] [µM] | IC50 ([7]; Homo sapiens, HEK-293T, read-out: IC50 HEK293T) [µM] | IC50 ([8]; Homo sapiens, read-out: IC50 HMLER) [µM] | IC50 ([9]; Homo sapiens, 72 h, read-out: IC50 HMLER-shEcad) [µM] | IC50 ([9]; Homo sapiens, read-out: IC50 against two-dimensional HMLER-shEcad) [µM] | IC50 ([10]; Homo sapiens, MCF-10A, read-out: IC50 MCF-10A) [µM] | IC50 ([6]; Homo sapiens, read-out: IC50 in mammospheres) [µM] |
| --- | --- | --- | --- | --- | --- | --- | --- | --- | --- | --- | --- | --- | --- | --- | --- | --- | --- | --- | --- | --- |
| CC(C)C[C@H](NC(=O)CN)C(=O)N[C@@H](CC(C)C)C(=O)N[C@@H](CCC(=O)O)C(=O)N[C@@H](CC(C)C)C(=O)N[C@@H](CC(C)C)C(=O)N[C@@H](CCC(=O)O)C(=O)N[C@@H](CC(C)C)C(=O)N[C@@H](CC(C)C)C(=O)N[C@@H](CC(C)C)C(=O)N[C@@H](CCCCN)C(=O)N[C@@H](C)C(=O)N[C@@H](C)C(=O)NCC(=O)N[C@@H](Cc1c[nH]c2ccccc12)C(N)=O [EEK] | 0.48 | 4.50 | 39 | 730 | 386 | 657 | relatively higher liposome leakage activity | cannot be improved | – | – | – | – | – | – | – | – | – | – | – | – |
| CC(C)C[C@@H](NC(=O)CN)C(=O)N[C@H](CC(C)C)C(=O)N[C@H](CCC(=O)O)C(=O)N[C@H](CC(C)C)C(=O)N[C@H](CC(C)C)C(=O)N[C@H](CCC(=O)O)C(=O)N[C@H](CC(C)C)C(=O)N[C@H](CC(C)C)C(=O)N[C@H](CC(C)C)C(=O)N[C@H](CCCCN)C(=O)N[C@H](C)C(=O)N[C@H](C)C(=O)NCC(=O)N[C@H](Cc1c[nH]c2ccccc12)C(N)=O [D-form EEK] | – | – | – | – | – | – | – | cannot be improved | – | – | – | – | – | – | – | – | – | – | – | – |
| COc1cccc2c1C(=O)c1c(O)c3c(c(O)c1C2=O)C[C@@](O)(C(=O)CO)C[C@@H]3O[C@H]1C[C@H](N)[C@H](O)[C@H](C)O1 [Doxorubicin, doxorubicin, reference compound] | – | – | – | – | – | – | – | can be dramatically improved | 1,700 fold | – | – | – | – | – | – | – | – | – | – | – |
| CC(C)C[C@H](NC(=O)CN)C(=O)N[C@@H](CC(C)C)C(=O)N[C@@H](CCCCN)C(=O)N[C@@H](CC(C)C)C(=O)N[C@@H](CC(C)C)C(=O)N[C@@H](CCC(=O)O)C(=O)N[C@@H](CC(C)C)C(=O)N[C@@H](CC(C)C)C(=O)N[C@@H](CC(C)C)C(=O)N[C@@H](CCC(=O)O)C(=O)N[C@@H](C)C(=O)N[C@@H](C)C(=O)NCC(=O)N[C@@H](Cc1c[nH]c2ccccc12)C(N)=O [KEE] | 0.20 | 0.20 | 97 | 626 | 108 | 657 | – | – | – | 11.1 ± 1.84 | 3.75 ± 0.78 | 2.05 ± 0.21 | ≥ 100 | 49.4 ± 13.3 | – | – | – | – | – | – |
| CC(C)C[C@H](NC(=O)CN)C(=O)N[C@@H](CC(C)C)C(=O)N[C@@H](CCC(=O)O)C(=O)N[C@@H](CC(C)C)C(=O)N[C@@H](CC(C)C)C(=O)N[C@@H](Cc1c[nH]cn1)C(=O)N[C@@H](CC(C)C)C(=O)N[C@@H](CC(C)C)C(=O)N[C@@H](CC(C)C)C(=O)N[C@@H](CCC(=O)O)C(=O)N[C@@H](C)C(=O)N[C@@H](C)C(=O)NCC(=O)N[C@@H](Cc1c[nH]c2ccccc12)C(N)=O [EHE] | 0.44 | 0.44 | 75 | 952 | 384 | 706 | relatively higher liposome leakage activity | – | – | 13 | 3.9 ± 0.28 | 2.55 ± 0.07 | ≥ 100 | 18.2 ± 1.06 | – | – | – | – | – | – |
| CC[C@@H](C(=O)[C@@H](C)[C@@H](O)[C@H](C)[C@@H]1O[C@@H]([C@@H](CC)C(=O)O)CC[C@@H]1C)[C@H]1O[C@]2(C=C[C@@H](O)[C@]3(CC[C@@](C)([C@H]4CC[C@](O)(CC)[C@H](C)O4)O3)O2)[C@H](C)C[C@@H]1C [Salinomycin, salinomycin, reference compound] | – | – | – | – | – | – | – | – | 63 fold | – | – | – | – | – | 0.41 ± 0.1 | 0.37 ± 0.08 | 0.92 ± 0.28 | 0.37 ± 0.0005 | 9.76 ± 2.28 | 22 ± 5 |
| CC(C)C[C@H](NC(=O)CN)C(=O)N[C@@H](CC(C)C)C(=O)N[C@@H](CC(=O)O)C(=O)N[C@@H](CC(C)C)C(=O)N[C@@H](CC(C)C)C(=O)N[C@@H](CCC(=O)O)C(=O)N[C@@H](CC(C)C)C(=O)N[C@@H](CC(C)C)C(=O)N[C@@H](CC(C)C)C(=O)N[C@@H](CCCCN)C(=O)N[C@@H](C)C(=O)N[C@@H](C)C(=O)NCC(=O)N[C@@H](Cc1c[nH]c2ccccc12)C(N)=O [DEK] | 1.50 | 1.67 | 10 | 747 | 469 | 773 | relatively higher liposome leakage activity | – | – | 6.8 ± 0.85 | 1.14 ± 0.52 | 0.7 ± 0.07 | ≥ 100 | 19.9 ± 2.65 | – | – | – | – | – | – |
